# What was measured:
# A375 xenografts = assay: γ-H2AX and total H2AX immunoassays on cells from drug-treated A375 xenograft mouse models; conditions: A375 xenografts in vivo; PARPi given simultaneously or four hours before CPT-11
# Procedure: Pierce REACTI-BIND plates (96-well) (Thermo Scientific) were coated with anti-7-H2AX antibody (Millipore) diluted to a concentration of 4 μg/mL in 0.1 M pH 9.6 carbonate buffer (Sigma-Aldrich, St. Louis, Mo.), 100 μL/well, for 2 hours at 37° C. The γ-H2AX synthetic peptide standard or a whole-cell extract was added to each well and incubated for antigen capture overnight at 4° C. Plates were incubated with 100 μL/well of 2 μg/mL anti-histone H2AX rabbit polyclonal antibody (Abcam) diluted in 2% bovine serum albumin (BSA)/phosphate buffered saline (PBS) supplemented with 1 μL/mL mouse serum for 2 hours (h) at 24° C. Subsequently, 100 μL/well HRP-conjugated affinity-purified goat anti-rabbit (KPL) was added at a final concentration of 1 μg/mL diluted in 2% BSA/PBS, supplemented with 1 μL/mL mouse serum, and incubated for 1 hour at 24° C. […] M200 plate reader (Tecan Group Ltr., Maennedorf, Switzerland). A standard curve was generated by plotting the RLU (relative light unit) values that were obtained for a range of concentrations of the γ-H2AX standard peptide (FIG. 1A). The average γ-H2AX concentration for each cell extract was then determined using the standard curve (FIG. 1B).
# A375 xenograft mouse models were treated with vehicle (control), CPT-11 alone, a PARP inhibitor alone, a combination of CPT-11 and the PARP inhibitor (PARPi) administered simultaneously, or a combination of CPT-11 and the PARPi, wherein the PARPi is administered four hours before CPT-11 is administered. […] Cells from the treated mice were quantified for γ-H2AX and total H2AX using the immunoassays of Examples 1 and 2, respectively, and the ratio of γ-H2AX to total H2AX was determined.
# [1] = tested on: tumors of the human breast carcinoma cell line MX1; assay: γ-H2AX and total H2AX immunoassays on tumor biopsies of drug-treated nude mice with MX1 tumors; type: in vivo
# Procedure: Pierce REACTI-BIND plates (96-well) (Thermo Scientific) were coated with anti-7-H2AX antibody (Millipore) diluted to a concentration of 4 μg/mL in 0.1 M pH 9.6 carbonate buffer (Sigma-Aldrich, St. Louis, Mo.), 100 μL/well, for 2 hours at 37° C. The γ-H2AX synthetic peptide standard or a whole-cell extract was added to each well and incubated for antigen capture overnight at 4° C. Plates were incubated with 100 μL/well of 2 μg/mL anti-histone H2AX rabbit polyclonal antibody (Abcam) diluted in 2% bovine serum albumin (BSA)/phosphate buffered saline (PBS) supplemented with 1 μL/mL mouse serum for 2 hours (h) at 24° C. […] Finally, 100 μL/well of freshly prepared SUPERSIGNAL ELISA Pico chemiluminescent substrate (Thermo Scientific, Waltham, Mass.) was added to the plate and immediately read on a TECAN INFINITE M200 plate reader (Tecan Group Ltr., Maennedorf, Switzerland). […] The average γ-H2AX concentration for each cell extract was then determined using the standard curve (FIG. 1B).
# Pierce REACTI-BIND plates (96-well) were coated with total anti-H2A core protein HIST1H2AC monoclonal antibody (Novus, St. Charles, Mo.) diluted to a concentration of 4 μg/mL in 0.1 M pH 9.6 carbonate buffer (Sigma-Aldrich), 100 μL/well, for 2 hours at 37° C. […] The average total H2AX concentration for each cell extract was then determined using the standard curve (FIG. 2B). […]
# MCF7 cells = assay: γ-H2AX and total H2AX immunoassays in MCF7 cells treated with SN38 and ATR inhibitors; type: cell-based, human; conditions: SN38 0.25 μM plus ATRi 1 or 0.5 μM
# [2] = tested on: γ-H2AX in HT29 or MCF7 cells; assay: Microscope staining with labeled anti-γ-H2AX antibody (IFA) of cells treated as in Example 14; type: cell-based, human; conditions: 10 nM, 100 nM, 1 μM and 10 μM CPT; intensity increased with concentration
# Text: The presence of γ-H2AX in the cells treated as described in Example 14 was confirmed by staining using a labeled anti-γ-H2AX antibody and observing the intensity of the staining through a microscope. […] The staining intensity increased as the concentration of CPT used to treat the cells increased.
# The γ-H2AX in the cells treated as described in Example 14 was quantified by staining using a labeled anti-γ-H2AX antibody and measuring the intensity of the staining observed through a microscope (immunofluorescence microscope assay (IFA)). The quantity of γ-H2AX measured by staining intensity was compared to the ratio of γ-H2AX to total H2AX measured by the immunoassays (IA) of Examples 1 and 2. The results are shown in FIG. 18A (HT29) and FIG. 18B (MCF7).
# HT29 cells = assay: Ratio of γ-H2AX to total H2AX in HT29 cells treated 1 hour in vitro; type: cell-based, human
# Procedure: Pierce REACTI-BIND plates (96-well) (Thermo Scientific) were coated with anti-7-H2AX antibody (Millipore) diluted to a concentration of 4 μg/mL in 0.1 M pH 9.6 carbonate buffer (Sigma-Aldrich, St. Louis, Mo.), 100 μL/well, for 2 hours at 37° C. The γ-H2AX synthetic peptide standard or a whole-cell extract was added to each well and incubated for antigen capture overnight at 4° C. Plates were incubated with 100 μL/well of 2 μg/mL anti-histone H2AX rabbit polyclonal antibody (Abcam) diluted in 2% bovine serum albumin (BSA)/phosphate buffered saline (PBS) supplemented with 1 μL/mL mouse serum for 2 hours (h) at 24° C. Subsequently, 100 μL/well HRP-conjugated affinity-purified goat anti-rabbit (KPL) was added at a final concentration of 1 μg/mL diluted in 2% BSA/PBS, supplemented with 1 μL/mL mouse serum, and incubated for 1 hour at 24° C. Finally, 100 μL/well of freshly prepared SUPERSIGNAL ELISA Pico chemiluminescent substrate (Thermo Scientific, Waltham, Mass.) was added to the plate and immediately read on a TECAN INFINITE M200 plate reader (Tecan Group Ltr., Maennedorf, Switzerland). […] The average γ-H2AX concentration for each cell extract was then determined using the standard curve (FIG. 1B).
# Pierce REACTI-BIND plates (96-well) were coated with total anti-H2A core protein HIST1H2AC monoclonal antibody (Novus, St. Charles, Mo.) diluted to a concentration of 4 μg/mL in 0.1 M pH 9.6 carbonate buffer (Sigma-Aldrich), 100 μL/well, for 2 hours at 37° C. […] Finally, 100 μL/well of freshly prepared SUPERSIGNAL ELISA Pico chemiluminescent substrate (Thermo Scientific) was added to the plate and immediately read on a TECAN INFINITE M200 plate reader. […] The average total H2AX concentration for each cell extract was then determined using the standard curve (FIG. 2B).
# HT29 cells were treated with the genotoxic agent camptothecin (CPT) or the non-genotoxic agent rhomidepsin for 1 hour at a concentration of 0 (vehicle) 0.001, 0.001, 0.01, 1 or 10 μM. […] DNA DSB, as measured by the ratio of γ-H2AX to total H2AX, was detected with CPT treatment as low as 1 nM. […]
# γ-H2AX in HCT116 cells [3] = assay: γ-H2AX detection by immunofluorescence assay (IFA) in treated HCT116 cell cultures; type: cell-based, human
# Procedure: (§1) Human […] cancer cell lines HCT 116 or MCF 7 (ATCC) were cultured with 10% fetal bovine serum at 37° C. in a 5% CO2 incubator. The cells were treated with the topoisomerase I inhibitor topotecan, the apoptosis-inducing biomolecule tumor necrosis factor (TNF)-related apoptosis-inducing ligand (TRAIL), or IR. The γ-H2AX immunoassay (γ-H2AX ELISA) was compared with γ-H2AX detection by both Western blot and immunofluorescence assay (IFA).
# (§2) The ELISA detected changes in γ-H2AX in HCT116 cell cultures induced by a variety of treatments in vitro and was overall highly correlated to both IFA and Western blot following treatment with topotecan or TRAIL (Table 6).
# γ-H2AX in HCT116 cells [4] = assay: γ-H2AX immunoassay (γ-H2AX ELISA) in treated HCT116 cell cultures; type: cell-based, human
# Procedure: Pierce REACTI-BIND plates (96-well) (Thermo Scientific) were coated with anti-7-H2AX antibody (Millipore) diluted to a concentration of 4 μg/mL in 0.1 M pH 9.6 carbonate buffer (Sigma-Aldrich, St. Louis, Mo.), 100 μL/well, for 2 hours at 37° C. The γ-H2AX synthetic peptide standard or a whole-cell extract was added to each well and incubated for antigen capture overnight at 4° C. Plates were incubated with 100 μL/well of 2 μg/mL anti-histone H2AX rabbit polyclonal antibody (Abcam) diluted in 2% bovine serum albumin (BSA)/phosphate buffered saline (PBS) supplemented with 1 μL/mL mouse serum for 2 hours (h) at 24° C. Subsequently, 100 μL/well HRP-conjugated affinity-purified goat anti-rabbit (KPL) was added at a final concentration of 1 μg/mL diluted in 2% BSA/PBS, supplemented with 1 μL/mL mouse serum, and incubated for 1 hour at 24° C. Finally, 100 μL/well of freshly prepared SUPERSIGNAL ELISA Pico chemiluminescent substrate (Thermo Scientific, Waltham, Mass.) was added to the plate and immediately read on a TECAN INFINITE M200 plate reader (Tecan Group Ltr., Maennedorf, Switzerland). A standard curve was generated by plotting the RLU (relative light unit) values that were obtained for a range of concentrations of the γ-H2AX standard peptide (FIG. 1A). The average γ-H2AX concentration for each cell extract was then determined using the standard curve (FIG. 1B).
# as §1, §2
# γ-H2AX in HCT116 cells [5] = assay: γ-H2AX detection by Western blot in treated HCT116 cell cultures; type: cell-based, human
# Procedure: as §1, §2
molecule,measurement,setting,value
C[C@]1(c2nc3c(C(N)=O)cccc3[nH]2)CCCN1 [ABT-888],induction of γ-H2AX (DNA DSB) in combination with CPT-11,A375 xenografts,synergistic induction of γ-H2AX
O=C(c1cc(Cc2n[nH]c(=O)c3ccccc23)ccc1F)N1CCN(C(=O)C2CC2)CC1 [AZD2281],induction of γ-H2AX (DNA DSB) in combination with CPT-11,A375 xenografts,synergistic induction of γ-H2AX
same,γ-H2AX induction (ratio of γH2AX to total H2AX),"[1]; 50 or 6.25 units AZD2281 IP in combination with irinotecan 7.5 units IV, particularly at 4 hours after administration",induced substantially more γ-H2AX
C[C@@H]1COCCN1c1cc(C2([S@](C)(=N)=O)CC2)nc(-c2cc[nH]c3nccc2-3)n1 [AZD-6738],synergy for γ-H2AX induction in combination with the Top1 inhibitor SN38,MCF7 cells,highest synergy
"CC[C@@]1(O)C(=O)OCc2c1cc1n(c2=O)Cc2cc3ccccc3nc2-1 [CPT, camptothecin]",staining with labeled anti-γ-H2AX antibody,[2],Staining was observed
same,"concentration at which DNA DSB, as measured by the ratio of γ-H2AX to total H2AX, was detected",HT29 cells; 1 hour treatment,≥ 1 nM
same,concentration giving a detectable signal of DNA DSB (ratio of γ-H2AX to total H2AX),"HT29 cells; 1 hour, with as few as 160 cells per assay",≥ 0.01 µM
NC(=O)c1cccc2cn(-c3ccc([C@@H]4CCCNC4)cc3)nc12 [MK-4827],induction of γ-H2AX (DNA DSB) in combination with CPT-11,A375 xenografts,synergistic induction of γ-H2AX
Nc1nc(N)c(N=O)c(OCC2CCCCC2)n1 [NU-6027],synergy for γ-H2AX induction in combination with the Top1 inhibitor SN38,MCF7 cells,none
"CC[C@@]1(O)C(=O)OCc2c1cc1n(c2=O)Cc2cc3c(CN(C)C)c(O)ccc3nc2-1 [Topotecan, topotecan]",γ-H2AX IFA,"γ-H2AX in HCT116 cells [3]; Topotecan 1 μM, 0 hr",0.7 RLU
same,γ-H2AX IFA,"γ-H2AX in HCT116 cells [3]; Topotecan 1 μM, 1 hr",23.0 RLU
same,γ-H2AX IFA,"γ-H2AX in HCT116 cells [3]; Topotecan 1 μM, 3 hr",43.9 RLU
same,γ-H2AX IFA,"γ-H2AX in HCT116 cells [3]; Topotecan 1 μM, 6 hr",51.2 RLU
same,γ-H2AX ELISA,"γ-H2AX in HCT116 cells [4]; Topotecan 1 μM, 0 hr",124 pM
same,γ-H2AX ELISA,"γ-H2AX in HCT116 cells [4]; Topotecan 1 μM, 1 hr",2536 pM
same,γ-H2AX ELISA,"γ-H2AX in HCT116 cells [4]; Topotecan 1 μM, 3 hr",3134 pM
same,γ-H2AX ELISA,"γ-H2AX in HCT116 cells [4]; Topotecan 1 μM, 6 hr",4793 pM
same,γ-H2AX Western Blot,"γ-H2AX in HCT116 cells [5]; Topotecan 1 μM, 0 hr",4.7 RLU
same,γ-H2AX Western Blot,"γ-H2AX in HCT116 cells [5]; Topotecan 1 μM, 1 hr",8.1 RLU
same,γ-H2AX Western Blot,"γ-H2AX in HCT116 cells [5]; Topotecan 1 μM, 3 hr",6.9 RLU
same,γ-H2AX Western Blot,"γ-H2AX in HCT116 cells [5]; Topotecan 1 μM, 6 hr",14.3 RLU
CNCc1ccc(-c2cc(-c3nc(-c4ccc(S(=O)(=O)C(C)C)cc4)cnc3N)on2)cc1 [VE-822],synergy for γ-H2AX induction in combination with the Top1 inhibitor SN38,MCF7 cells,highest synergy
CCc1c2c(nc3ccc(OC(=O)N4CCC(N5CCCCC5)CC4)cc13)-c1cc3c(c(=O)n1C2)COC(=O)[C@]3(O)CC [irinotecan],γ-H2AX induction (ratio of γH2AX to total H2AX),"[1]; irinotecan 7.5 units IV alone, MX1 tumor biopsies, nude mice",induced γ-H2AX modestly
C/C=C1\NC(=O)[C@H]2CSSCC/C=C/[C@H](CC(=O)N[C@H](C(C)C)C(=O)N2)OC(=O)[C@H](C(C)C)NC1=O [rhomidepsin],"DNA DSB, as measured by the ratio of γ-H2AX to total H2AX","HT29 cells; 1 hour, even at a concentration as high as 10 μM",no DNA DSB
"TRAIL: apoptosis-inducing biomolecule tumor necrosis factor (TNF)-related apoptosis-inducing ligand (protein, UniProt P50591 1-281, looked up) Tumor necrosis factor ligand …: MAMMEVQGGPSLGQTCVLIVIFTVLLQSLCVAVTYVYFTNELKQMQDKYSKSGIACFLKEDDSYWDPNDEESMNSPCWQVKWQLRQLVRKMILRTSEETISTVQEKQQNISPLVRERGPQRVAAHITGTRGRSNTLSSPNSKNEKALGRKINSWESSRSGHSFLSNLHLRNGELVIHEKGFYYIYSQTYFRFQEEIKENTKNDKQMVQYIYKYTSYPDPILLMKSARNSCWSKDAEYGLYSIYQGGIFELKENDRIFVSVTNEHLIDMDHEASFFGAFLVG",γ-H2AX IFA,"γ-H2AX in HCT116 cells [3]; TRAIL 0.1 μg/mL, 0 hr",2.0 RLU
same,γ-H2AX IFA,"γ-H2AX in HCT116 cells [3]; TRAIL 0.1 μg/mL, 1 hr",34.5 RLU
same,γ-H2AX IFA,"γ-H2AX in HCT116 cells [3]; TRAIL 0.1 μg/mL, 3 hr",72.2 RLU
same,γ-H2AX IFA,"γ-H2AX in HCT116 cells [3]; TRAIL 0.1 μg/mL, 6 hr",49.6 RLU
same,γ-H2AX ELISA,"γ-H2AX in HCT116 cells [4]; TRAIL 0.1 μg/mL, 0 hr",134 pM
same,γ-H2AX ELISA,"γ-H2AX in HCT116 cells [4]; TRAIL 0.1 μg/mL, 1 hr",2764 pM
same,γ-H2AX ELISA,"γ-H2AX in HCT116 cells [4]; TRAIL 0.1 μg/mL, 3 hr",9276 pM
same,γ-H2AX ELISA,"γ-H2AX in HCT116 cells [4]; TRAIL 0.1 μg/mL, 6 hr",7703 pM
same,γ-H2AX Western Blot,"γ-H2AX in HCT116 cells [5]; TRAIL 0.1 μg/mL, 0 hr",2.7 RLU
same,γ-H2AX Western Blot,"γ-H2AX in HCT116 cells [5]; TRAIL 0.1 μg/mL, 1 hr",17.3 RLU
same,γ-H2AX Western Blot,"γ-H2AX in HCT116 cells [5]; TRAIL 0.1 μg/mL, 3 hr",45.8 RLU
same,γ-H2AX Western Blot,"γ-H2AX in HCT116 cells [5]; TRAIL 0.1 μg/mL, 6 hr",43.5 RLU

# Reference: patent publication US10809268B2, “Methods and kits for measuring and quantifying DNA double-stranded breaks using gamma-H2AX and H2AX” (The United States of America, as represented by the …, priority 2015, dated 2020)
